Reference: patent US6420401B1, “1,2,5, thiadiazolidin-3-one 1,1-dioxide derivatives” (Wichita State University, priority 1997, dated 2002)

How the values were obtained:
Assay type in all cases: biochemical
[1] = target: T1, human leukocyte elastase (HLE) (Homo sapiens, UniProt P08246); experiment: Inactivation of human leukocyte elastase, progress curve method
T1 sequence (P08246 30-267): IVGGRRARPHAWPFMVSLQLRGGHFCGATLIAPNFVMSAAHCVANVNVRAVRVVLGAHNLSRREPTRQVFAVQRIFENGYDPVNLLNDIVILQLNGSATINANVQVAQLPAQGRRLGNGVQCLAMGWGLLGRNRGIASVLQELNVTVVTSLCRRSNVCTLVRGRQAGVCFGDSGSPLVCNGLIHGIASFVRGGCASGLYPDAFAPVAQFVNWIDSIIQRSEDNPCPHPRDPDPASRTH
Experimental: (§1) Absorbance was recorded at 410 nm for reaction solutions containing 20.0 nM HLE, 1.00 mM MeOSuc-Ala-Ala-Pro-Val p-nitroanilide, and the indicated concentrations of inhibitor in 0.1 M HEPES buffer, pH 7.25, and 3.6% dimethyl sulfoxide. The temperature was maintained at 25° C., and the reactions were initiated by the addition of enzyme.
as §1, with “(Table 4). Absorbance” for “Absorbance”, “monitored” for “recorded”
(§2) An in vitro assay was used to screen compounds of the invention for the ability to reduce or inhibit serine protease activity. The human leukocyte elastase (HLE), cathepsin G (Cat G) and proteinase 3 (PR 3) assays have each been described in detail, Groutas et al. (1997) Biochemistry 36, 4739-4750. Chymase was assayed using N-succinyl Ala-Ala-Pro-Phe p-nitroanilide and 0.45 M Tris buffer/1.8 M NaCl, pH 8.03, Schechter, N. M. et al. (1993) J. Biol. Chem. 268, 23626-23633.
(§3) The rates of inactivation of HLE, Cat G or PR3 by each compound (or library of compounds) were determined by the progress curve method [Morrison, J. F. & Walsh, C. T. (1988) Adv. Enzymol. 61, 201-301]. Typical progress curves using a representative sulfonamide or heterocyclic sulfide inhibitor are illustrated in FIGS. 1 and 2, respectively. The apparent second-order rate constants kinact/kI M^−1 s^−1, the magnitude of which serves as an index of inhibitory potency, were determined by the progress curve method and are listed in Table 5 (sulfonamides), Table 6 (heterocyclic sulfides), Table 3 (oxa acids) , Tables 7 & 8 (libraries 1-30), and Table 9 (reversible inhibitors).

[2] = target: T2, human leukocyte cathepsin G (Cat G) (Homo sapiens, UniProt P08311); experiment: Inactivation of cathepsin G, progress curve method
T2 sequence (P08311 21-244): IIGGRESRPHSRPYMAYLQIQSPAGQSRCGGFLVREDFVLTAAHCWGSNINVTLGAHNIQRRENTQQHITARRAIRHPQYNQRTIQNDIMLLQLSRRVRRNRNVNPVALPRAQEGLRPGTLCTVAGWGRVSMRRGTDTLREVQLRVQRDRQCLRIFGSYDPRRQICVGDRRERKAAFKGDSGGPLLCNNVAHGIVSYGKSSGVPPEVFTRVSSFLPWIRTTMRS
Experimental: as §2, §3
A solution of (L)-4,5-dibenzyl-1,2,5-thiadiazolidin-3-one 1,1 dioxide (0.5 g; 1.58 mmol) and ethyl α-bromofluoroacetate (0.44 g; 2.37 mmol) in dry dimethyl formamide (3 mL) was treated with 60% sodium hydride ([…]; 1.58 mmol). The reaction mixture was kept at 55° C. for 1 h using a water bath. The solvent was removed in vacuo and the product was dissolved in ethyl acetate (35 mL) and washed with water (3×10 mL), 5% sodium bicarbonate (2×10 mL) and dried over anhydrous sodium sulfate. Evaporation of the solvent yielded a crude product (0.56 g) which was purified by flash chromatography using silica gel and a hexane/methylene chloride gradient. The product K-1a (0.15 g; 25% yield) was screened against human leukocyte cathepsin G using the progress curve method (kinact/Ki>10,000 M^−1 s^−1). [drawing 45] [drawing 46] [drawing 47] [drawing 48] [drawing 49]

[3] = target: T3, Human Leukocyte Proteinase 3 (PR 3) (Homo sapiens, UniProt P24158); experiment: Inactivation of proteinase 3, progress curve method
T3 sequence (P24158 28-248): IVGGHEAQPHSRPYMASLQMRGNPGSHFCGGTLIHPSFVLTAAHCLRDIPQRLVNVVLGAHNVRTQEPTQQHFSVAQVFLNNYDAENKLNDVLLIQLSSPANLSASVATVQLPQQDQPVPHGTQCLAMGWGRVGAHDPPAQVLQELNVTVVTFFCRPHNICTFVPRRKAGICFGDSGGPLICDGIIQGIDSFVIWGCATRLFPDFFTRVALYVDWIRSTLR
Experimental: as §2, §3

[4] = Table 5, sulfonamides 31-49, apparent second-order rate constant
[5] = Table 6, heterocyclic sulfides 53-69

CC(C)COC(=O)N(CN1C(=O)C(CC(C)C)N(C)S1(=O)=O)S(C)(=O)=O (centres unmarked) [Compound 31]
kinact/KI [1, 4]: 11900 M⁻¹ s⁻¹

CCCCOC(=O)N(CN1C(=O)C(CC(C)C)N(C)S1(=O)=O)S(C)(=O)=O (centres unmarked) [Compound 32]
kinact/KI [1, 4]: 40500 M⁻¹ s⁻¹

CC(C)CC1C(=O)N(CN(C(=O)OCc2ccccc2)S(C)(=O)=O)S(=O)(=O)N1C (centres unmarked) [Compound 33]
kinact/KI [1, 4]: 22000 M⁻¹ s⁻¹

CCCCOC(=O)N(CN1C(=O)C(Cc2ccccc2)N(Cc2ccccc2)S1(=O)=O)S(C)(=O)=O (centres unmarked) [Compound 38]
kinact/KI ([2]; Table 5, sulfonamides 31-49): 5380 M⁻¹ s⁻¹
kinact/KI [1, 4]: 1970 M⁻¹ s⁻¹

CC(C)CC1C(=O)N(CN(C(=O)c2ccccc2)S(C)(=O)=O)S(=O)(=O)N1C (centres unmarked) [Compound 39]
kinact/KI [1, 4]: 71000 M⁻¹ s⁻¹

CC(C)CC1C(=O)N(CN(C(=O)Cc2ccccc2)S(C)(=O)=O)S(=O)(=O)N1C (centres unmarked) [Compound 40]
kinact/KI ([3]; Table 5, sulfonamides 31-49): 10100 M⁻¹ s⁻¹
kinact/KI ([2]; Table 5, sulfonamides 31-49): 220 M⁻¹ s⁻¹
kinact/KI [1, 4]: 28300 M⁻¹ s⁻¹

CC(C)CC1C(=O)N(CN(C(=O)CNC(=O)OC(C)(C)C)S(C)(=O)=O)S(=O)(=O)N1C (centres unmarked) [Compound 42]
kinact/KI ([3]; Table 5, sulfonamides 31-49): 27400 M⁻¹ s⁻¹
kinact/KI [1, 4]: 140000 M⁻¹ s⁻¹

CC(C)CC1C(=O)N(CN(C(=O)CNC(=O)OCc2ccccc2)S(C)(=O)=O)S(=O)(=O)N1C (centres unmarked) [Compound 43]
kinact/KI ([3]; Table 5, sulfonamides 31-49): 27400 M⁻¹ s⁻¹
kinact/KI ([2]; Table 5, sulfonamides 31-49): 60 M⁻¹ s⁻¹
kinact/KI [1, 4]: 229000 M⁻¹ s⁻¹

CC(C)CC1C(=O)N(CN(C(=O)CNC(=O)OC(C)(C)C)S(C)(=O)=O)S(=O)(=O)N1Cc1ccccc1 (centres unmarked) [Compound 44]
kinact/KI [1, 4]: 149000 M⁻¹ s⁻¹

CC(C)CC1C(=O)N(CN(C(=O)CNC(=O)OCc2ccccc2)S(C)(=O)=O)S(=O)(=O)N1Cc1ccccc1 (centres unmarked) [Compound 45]
kinact/KI ([3]; Table 5, sulfonamides 31-49): 30100 M⁻¹ s⁻¹
kinact/KI ([2]; Table 5, sulfonamides 31-49): 70 M⁻¹ s⁻¹
kinact/KI [1, 4]: 134000 M⁻¹ s⁻¹

CCOC(=O)CNC(=O)N(CN1C(=O)C(CC(C)C)N(Cc2ccccc2)S1(=O)=O)S(C)(=O)=O (centres unmarked) [Compound 48]
kinact/KI ([3]; Table 5, sulfonamides 31-49): 5190 M⁻¹ s⁻¹
kinact/KI ([2]; Table 5, sulfonamides 31-49): 70 M⁻¹ s⁻¹
kinact/KI [1, 4]: 14100 M⁻¹ s⁻¹

CC(C)CC1C(=O)N(CN2C(=O)C(CC(C)C)N(Cc3ccccc3)S2(=O)=O)S(=O)(=O)N1Cc1ccccc1 (centres unmarked) [Compound 49]
kinact/KI [1, 4]: 850 M⁻¹ s⁻¹

CC(C)CC1C(=O)N(CSc2nc(-c3ccccc3)no2)S(=O)(=O)N1C (centres unmarked) [Compound 53]
kinact/KI [1, 5]: 153000 M⁻¹ s⁻¹

CC(C)CC1C(=O)N(CSc2nc3ccccc3s2)S(=O)(=O)N1C (centres unmarked) [Compound 54]
kinact/KI [1, 5]: 67300 M⁻¹ s⁻¹

CC(C)CC1C(=O)N(CSc2nc3ccccc3o2)S(=O)(=O)N1Cc1ccccc1 (centres unmarked) [Compound 55]
kinact/KI [3, 5]: 9130 M⁻¹ s⁻¹
kinact/KI [2, 5]: 60 M⁻¹ s⁻¹
kinact/KI [1, 5]: 174000 M⁻¹ s⁻¹

CC(C)CC1C(=O)N(CSc2nc(-c3ccccc3)c(-c3ccccc3)o2)S(=O)(=O)N1Cc1ccccc1 (centres unmarked) [Compound 56]
kinact/KI [1, 5]: 560 M⁻¹ s⁻¹

CC(C)CC1C(=O)N(CSc2nc3ccccc3o2)S(=O)(=O)N1C (centres unmarked) [Compound 57]
kinact/KI [3, 5]: 10400 M⁻¹ s⁻¹
kinact/KI [2, 5]: 30 M⁻¹ s⁻¹
kinact/KI [1, 5]: 80600 M⁻¹ s⁻¹

CC(C)CC1C(=O)N(CSc2nnc(-c3ccccc3)o2)S(=O)(=O)N1Cc1ccccc1 (centres unmarked) [Compound 58]
kinact/KI [1, 5]: 168000 M⁻¹ s⁻¹

CC(C)CC1C(=O)N(CSc2nc3ccccc3s2)S(=O)(=O)N1Cc1ccccc1 (centres unmarked) [Compound 59]
kinact/KI [1, 5]: 22400 M⁻¹ s⁻¹

CC(C)CC1C(=O)N(CSc2nc(-c3ccccc3)c(-c3ccccc3)o2)S(=O)(=O)N1C (centres unmarked) [Compound 60]
kinact/KI [1, 5]: 1540 M⁻¹ s⁻¹

CC(C)CC1C(=O)N(CSc2nnc(-c3ccccc3)o2)S(=O)(=O)N1C (centres unmarked) [Compound 61]
kinact/KI [1, 5]: 25300 M⁻¹ s⁻¹

CC(C)CC1C(=O)N(CSc2nc(-c3ccccc3)no2)S(=O)(=O)N1Cc1ccccc1 (centres unmarked) [Compound 62]
kinact/KI [1, 5]: 67800 M⁻¹ s⁻¹

CC(C)CC1C(=O)N(CSc2nc3cc(-c4ccccc4)ccc3o2)S(=O)(=O)N1C (centres unmarked) [Compound 63]
kinact/KI [1, 5]: 22600 M⁻¹ s⁻¹

CC(C)CC1C(=O)N(CSc2nc3cc(-c4ccccc4)ccc3o2)S(=O)(=O)N1Cc1ccccc1 (centres unmarked) [Compound 64]
kinact/KI [3, 5]: 1090 M⁻¹ s⁻¹
kinact/KI [2, 5]: 50 M⁻¹ s⁻¹
kinact/KI HLE [1, 5]: inactive

CN1C(Cc2ccccc2)C(=O)N(CSc2nnc(-c3ccccc3)o2)S1(=O)=O (centres unmarked) [Compound 65]
kinact/KI [2, 5]: 490 M⁻¹ s⁻¹
kinact/KI HLE [1, 5]: inactive

CN1C(Cc2ccccc2)C(=O)N(CSc2nc3ccccc3o2)S1(=O)=O (centres unmarked) [Compound 66]
kinact/KI [2, 5]: 430 M⁻¹ s⁻¹

O=C1C(Cc2ccccc2)N(Cc2ccccc2)S(=O)(=O)N1CSc1nc2ccccc2o1 (centres unmarked) [Compound 67]
kinact/KI [2, 5]: 17100 M⁻¹ s⁻¹

O=C1C(Cc2ccccc2)N(Cc2ccccc2)S(=O)(=O)N1CSc1nnc(-c2ccccc2)o1 (centres unmarked) [Compound 68]
kinact/KI [2, 5]: 17500 M⁻¹ s⁻¹

Nc1ccc2nc(SCN3C(=O)C(Cc4ccccc4)N(Cc4ccccc4)S3(=O)=O)oc2c1 (centres unmarked) [Compound 69]
kinact/KI [2, 5]: 15700 M⁻¹ s⁻¹

CCOC(=O)C(F)N1C(=O)C(Cc2ccccc2)N(Cc2ccccc2)S1(=O)=O (centres unmarked) [Compound K-1a]
kinact/Ki ([2]; human leukocyte cathepsin G, progress curve method): > 10,000 M^−1 s^−1
